In PubChem BioAssay (NCI):
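Values below derive from 48-hour exposures of cells grown in 96-well plates, with endpoints linearly interpolated between the two concentrations bracketing the appropriate inhibition level. Abbreviation: GI50, concentration required for 50% inhibition of growth. TGI denotes the concentration required for complete inhibition of growth.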

What was measured:
Test in all cases: growth of human tumour cells (NCI), 48 h
PC-3 prostate = test system: PC-3 prostate
NCI-H23 lung = test system: NCI-H23 lung
CAKI-1 renal = test system: CAKI-1 renal
HL-60(TB) leukemia = test system: HL-60(TB) leukemia
A498 renal = test system: A498 renal
RPMI-8226 leukemia = test system: RPMI-8226 leukemia
UACC-257 melanoma = test system: UACC-257 melanoma
HCC-2998 colon = test system: HCC-2998 colon
SW-620 colon = test system: SW-620 colon
COLO 205 colon = test system: COLO 205 colon
OVCAR-8 ovarian = test system: OVCAR-8 ovarian
HOP-62 NSCLC = test system: HOP-62 NSCLC
NCI-H522 lung = test system: NCI-H522 lung
HOP-92 NSCLC = test system: HOP-92 NSCLC
SK-OV-3 ovarian = test system: SK-OV-3 ovarian
HT29 colon = test system: HT29 colon
ACHN renal = test system: ACHN renal
MOLT-4 leukemia = test system: MOLT-4 leukemia
SNB-75 CNS = test system: SNB-75 CNS
HS 578T breast = test system: HS 578T breast
UO-31 renal = test system: UO-31 renal
NCI/ADR-RES ovarian = test system: NCI/ADR-RES ovarian
SNB-19 CNS = test system: SNB-19 CNS
SK-MEL-5 melanoma = test system: SK-MEL-5 melanoma
786-0 renal = test system: 786-0 renal
TK-10 renal = test system: TK-10 renal
MDA-MB-231 breast = test system: MDA-MB-231 breast
K-562 leukemia = test system: K-562 leukemia
A549 NSCLC = test system: A549 NSCLC
M14 melanoma = test system: M14 melanoma
EKVX NSCLC = test system: EKVX NSCLC
NCI-H226 lung = test system: NCI-H226 lung
SK-MEL-28 melanoma = test system: SK-MEL-28 melanoma
U251 CNS = test system: U251 CNS
OVCAR-4 ovarian = test system: OVCAR-4 ovarian
NCI-H460 lung = test system: NCI-H460 lung
MCF7 breast = test system: MCF7 breast
SF-268 CNS = test system: SF-268 CNS
T-47D breast = test system: T-47D breast
KM12 colon = test system: KM12 colon
OVCAR-5 ovarian = test system: OVCAR-5 ovarian
DU-145 prostate = test system: DU-145 prostate
CCRF-CEM leukemia = test system: CCRF-CEM leukemia
SF-539 CNS = test system: SF-539 CNS
SR leukemia = test system: SR leukemia
MALME-3M melanoma = test system: MALME-3M melanoma
HCT-15 colon = test system: HCT-15 colon
RXF 393 renal = test system: RXF 393 renal
IGROV1 ovarian = test system: IGROV1 ovarian
SN12C renal = test system: SN12C renal
SK-MEL-2 melanoma = test system: SK-MEL-2 melanoma
SF-295 CNS = test system: SF-295 CNS
MDA-MB-435 = test system: MDA-MB-435
UACC-62 melanoma = test system: UACC-62 melanoma
HCT-116 colon = test system: HCT-116 colon

Structure (SMILES): N#Cc1cccc(NC(=O)c2cc(-c3ccc(F)cc3F)ccc2O)c1
- GI50 (PC-3 prostate): 2.89 µM
- TGI (PC-3 prostate): 17.9 µM
- GI50 (NCI-H23 lung): 1.49 µM
- TGI (NCI-H23 lung): 6.23 µM
- GI50 (CAKI-1 renal): 1.31 µM
- TGI (CAKI-1 renal): 4.74 µM
- GI50 (HL-60(TB) leukemia): 1.8 µM
- TGI (HL-60(TB) leukemia): 5.27 µM
- GI50 (A498 renal): 0.374 µM
- TGI (A498 renal): 2.12 µM
- GI50 (RPMI-8226 leukemia): 0.562 µM
- TGI (RPMI-8226 leukemia): 3.17 µM
- GI50 (UACC-257 melanoma): 0.893 µM
- TGI (UACC-257 melanoma): 5.32 µM
- GI50 (HCC-2998 colon): 3.22 µM
- TGI (HCC-2998 colon): 12.4 µM
- GI50 (SW-620 colon): 2.99 µM
- TGI (SW-620 colon): 17.1 µM
- GI50 (COLO 205 colon): 11.5 µM
- TGI (COLO 205 colon): 25.1 µM
- GI50 (OVCAR-8 ovarian): 2.88 µM
- TGI (OVCAR-8 ovarian): > 100 µM
- GI50 (HOP-62 NSCLC): 2.39 µM
- TGI (HOP-62 NSCLC): 7.96 µM
- GI50 (NCI-H522 lung): 0.642 µM
- TGI (NCI-H522 lung): 10.9 µM
- GI50 (HOP-92 NSCLC): 0.338 µM
- TGI (HOP-92 NSCLC): 1.93 µM
- GI50 (SK-OV-3 ovarian): 2.35 µM
- TGI (SK-OV-3 ovarian): 8.88 µM
- GI50 (HT29 colon): 5.71 µM
- TGI (HT29 colon): > 100 µM
- GI50 (ACHN renal): 2.65 µM
- TGI (ACHN renal): 10.1 µM
- GI50 (MOLT-4 leukemia): 2.55 µM
- TGI (MOLT-4 leukemia): 8.6 µM
- GI50 (SNB-75 CNS): 1.29 µM
- TGI (SNB-75 CNS): 3.88 µM
- GI50 (HS 578T breast): 2.02 µM
- TGI (HS 578T breast): 7.21 µM
- GI50 (UO-31 renal): 1.82 µM
- TGI (UO-31 renal): 9.03 µM
- GI50 (NCI/ADR-RES ovarian): 2.11 µM
- TGI (NCI/ADR-RES ovarian): 9.92 µM
- GI50 (SNB-19 CNS): 2.37 µM
- TGI (SNB-19 CNS): 14.3 µM
- GI50 (SK-MEL-5 melanoma): 0.507 µM
- TGI (SK-MEL-5 melanoma): 1.94 µM
- GI50 (786-0 renal): 3.06 µM
- TGI (786-0 renal): 10.7 µM
- GI50 (TK-10 renal): 3.49 µM
- TGI (TK-10 renal): 15.7 µM
- GI50 (MDA-MB-231 breast): 2.12 µM
- TGI (MDA-MB-231 breast): 5.93 µM
- GI50 (K-562 leukemia): 1.51 µM
- TGI (K-562 leukemia): > 100 µM
- GI50 (A549 NSCLC): 3.52 µM
- TGI (A549 NSCLC): > 100 µM
- GI50 (M14 melanoma): 2.25 µM
- TGI (M14 melanoma): 8.89 µM
- GI50 (EKVX NSCLC): 2.68 µM
- TGI (EKVX NSCLC): 9.32 µM
- GI50 (NCI-H226 lung): 1.86 µM
- TGI (NCI-H226 lung): 7.36 µM
- GI50 (SK-MEL-28 melanoma): 1.38 µM
- GI50 (U251 CNS): 2.56 µM
- TGI (U251 CNS): 25.5 µM
- GI50 (OVCAR-4 ovarian): 0.899 µM
- TGI (OVCAR-4 ovarian): 14.2 µM
- GI50 (NCI-H460 lung): 1.42 µM
- TGI (NCI-H460 lung): 13.3 µM
- GI50 (MCF7 breast): 1.87 µM
- TGI (MCF7 breast): 10.7 µM
- GI50 (SF-268 CNS): 2.38 µM
- TGI (SF-268 CNS): 20.7 µM
- GI50 (T-47D breast): 0.496 µM
- TGI (T-47D breast): 6.57 µM
- GI50 (KM12 colon): 2.72 µM
- TGI (KM12 colon): 8.24 µM
- GI50 (OVCAR-5 ovarian): 3.39 µM
- TGI (OVCAR-5 ovarian): 30.2 µM
- GI50 (DU-145 prostate): 2.63 µM
- TGI (DU-145 prostate): > 100 µM
- GI50 (CCRF-CEM leukemia): 3.25 µM
- TGI (CCRF-CEM leukemia): 19.3 µM
- GI50 (SF-539 CNS): 2.54 µM
- GI50 (SR leukemia): 2.91 µM
- TGI (SR leukemia): 23.2 µM
- GI50 (MALME-3M melanoma): 1.01 µM
- TGI (MALME-3M melanoma): 4 µM
- GI50 (HCT-15 colon): 1.9 µM
- TGI (HCT-15 colon): 6.93 µM
- GI50 (RXF 393 renal): 2.25 µM
- TGI (RXF 393 renal): 6.6 µM
- GI50 (IGROV1 ovarian): 2.6 µM
- TGI (IGROV1 ovarian): > 100 µM
- GI50 (SN12C renal): 1.44 µM
- TGI (SN12C renal): 6.46 µM
- GI50 (SK-MEL-2 melanoma): 0.768 µM
- TGI (SK-MEL-2 melanoma): 3.85 µM
- GI50 (SF-295 CNS): 1.96 µM
- TGI (SF-295 CNS): 4.44 µM
- GI50 (MDA-MB-435): 1.37 µM
- TGI (MDA-MB-435): 6.32 µM
- GI50 (UACC-62 melanoma): 0.522 µM
- TGI (UACC-62 melanoma): 2.7 µM
- GI50 (HCT-116 colon): 1.89 µM
- TGI (HCT-116 colon): 8.91 µM
